Laboratory results: patent US7642239B2, “Inhibition of placenta growth factor (PLGF) mediated metastasis and/or angiogenesis” (Center for Molecular Medicine and Immunology, priority 2005, dated 2010)
Ends that are not written are not given here.

System: MDA-MB-231 s.c. xenograft
Test: Subcutaneous MDA-MB-231 xenograft growth and lung metastasis
Type: in vivo, nude mice
Description: The tissue-culture-grown human breast tumor cell line, MDA-MB-231, was implanted subcutaneously (s.c.) on the flanks of nude mice. When tumors were visible, the mice were weighed and the tumors measured. Treatment with peptides was begun when tumors averaged about 0.06-0.12 cm^3 in volume. Mice were treated with 200-μg peptide in PBS by i.p. injection at 3-4-day intervals for 4 weeks. Animals were weighed and the tumors measured at each treatment. In a second experiment, the control peptide, CPA, was included. Three days after the final treatment, tumors and lungs were harvested. Tumor burden of the lungs (from experiment 1) was determined by counting colonies (<20 cells), clusters (>20-100 cells), and nodules (>100 cells) seen in all the lung tissue on a total of 4 slides or sections for each mouse. Data are presented as the average number of each size of metastasis for each treatment group (3-4 mice/group). The total number of each was summed for each treatment group, and divided by the total number of mice in that group. The percent inhibition for metastasis was determined by the formula: % inhibition=(# mock-treated−# treated/# mock-treated)×100.
To test for therapeutic activity of the peptide, BP1, mice were implanted with human breast cancer cells, MDA-MB-231, which produces lung metastases spontaneously when implanted as a subcutaneous tumor. When the tumors averaged 0.12 cm^3 in volume, either mock-treatment or therapy with BP1 was initiated at 200 μg, two times per week for 4 weeks. […] In a subsequent experiment, treatment was commenced when tumors were 0.07-0.08 cm^3. After 4 weeks of treatment, as described, the mean volume of the mock- and CPA-treated tumors was 0.25 and 0.33 cm^3, respectively, whereas BP1-treated tumors averaged 0.04 cm^3 (P<0.05 BP1 vs. mock- or CPA-treated tumors) (FIG. 3A).

## SHRYRLAIQLHASDSSSSCV [BP1]
Start at 0.12 cm^3, 200 μg two times per week for 4 weeks
  reduction in tumor size compared to mock-treated controls: 37%
Subsequent experiment, start at 0.07-0.08 cm^3, 200 μg i.p., mock 0.25
  mean tumor volume after 4 weeks of treatment: 0.04 cm^3
Total lung tissue/mouse, mock 36±6
  lung colonies (<20 cells) per mouse: 5±2
Total lung tissue/mouse, mock 76±19
  lung clusters (>20-100 cells) per mouse: 9±2
Total lung tissue/mouse, mock 78±25
  lung nodules (>100 cells) per mouse: 5±2
Vs mock-treated
  decrease in the number of metastatic lung nodules: 94%
